For two compounds, EC50, IC50 and AC50 results are on record in ChEMBL document CHEMBL1201862, “PubChem BioAssay data set” (2004).

Activity calls are given as the source filed them.

Experiment [1] has as its system Streptococcus sp. 'group A'. Description: growth inhibition of control SK(-) GAS strain, dose response, counter-screen for streptokinase expression inhibitor project, luminescence, kanamycin, BacTiterGlo, confirmation (AID 1900). Format: functional, organism-based. (In general: Counterscreens check selectivity or assay interference.)
The target of experiment [2] is T1, Streptokinase A (Streptococcus pyogenes serotype M1, UniProt P10520).
T1 sequence (P10520 whole entry): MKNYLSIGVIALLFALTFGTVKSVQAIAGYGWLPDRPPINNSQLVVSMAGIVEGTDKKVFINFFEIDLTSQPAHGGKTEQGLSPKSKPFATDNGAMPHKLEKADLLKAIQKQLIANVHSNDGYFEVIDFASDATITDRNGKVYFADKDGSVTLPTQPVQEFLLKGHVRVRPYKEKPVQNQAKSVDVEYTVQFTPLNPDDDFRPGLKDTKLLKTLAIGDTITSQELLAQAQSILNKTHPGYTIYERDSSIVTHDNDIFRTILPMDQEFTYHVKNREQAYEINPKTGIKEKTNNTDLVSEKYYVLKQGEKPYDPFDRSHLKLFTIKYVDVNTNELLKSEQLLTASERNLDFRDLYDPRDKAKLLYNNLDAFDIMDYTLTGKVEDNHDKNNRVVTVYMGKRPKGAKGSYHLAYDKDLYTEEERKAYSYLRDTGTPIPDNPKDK
Description: S. pyogenes streptokinase expression inhibitors, potency, dose response, plasminogen activation absorbance, OD405 (AID 1914).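 Further: secreted streptokinase activity via plasminogen activation per viability signal from cell pellet.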 It counts as functional, Streptococcus pyogenes M1 GAS.

A short description of experiment [3]: inhibitors of intracellular T. cruzi replication, confirmation, NIH3T3 host cells, beta-gal luminescence (AID 2044).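 Further: intracellular parasites grown in NIH/3T3 mouse fibroblasts as host cells; luminescent beta-galactosidase reporter signal from transgenic T. cruzi replicating inside host cells; inhibitors lower the luminescence signal.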 Format: functional, cell-based.
Experiment [4] can be described thus: cytotoxicity toward NIH3T3 fibroblasts, dose response, counter-screen, cell-based, ATP luminescence, mouse fibroblasts (AID 2010).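 Further: cells exposed to compound for about 90 hours before reading.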 Format: functional.
The test system of experiment [5] is Streptococcus. Description: Group A Streptococcus viability loss, dose response, counter-screen for streptokinase expression inhibitor project, luminescence, BacTiterGlo (AID 1915).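 Further: potency for reduction of bacterial viability or growth.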 Format: functional, organism-based.
Experiment [6] deals with T2, Exodeoxyribonuclease V (Escherichia coli (strain K12), UniProt P04993+P07648+P08394).
T2 sequence (P04993 whole entry): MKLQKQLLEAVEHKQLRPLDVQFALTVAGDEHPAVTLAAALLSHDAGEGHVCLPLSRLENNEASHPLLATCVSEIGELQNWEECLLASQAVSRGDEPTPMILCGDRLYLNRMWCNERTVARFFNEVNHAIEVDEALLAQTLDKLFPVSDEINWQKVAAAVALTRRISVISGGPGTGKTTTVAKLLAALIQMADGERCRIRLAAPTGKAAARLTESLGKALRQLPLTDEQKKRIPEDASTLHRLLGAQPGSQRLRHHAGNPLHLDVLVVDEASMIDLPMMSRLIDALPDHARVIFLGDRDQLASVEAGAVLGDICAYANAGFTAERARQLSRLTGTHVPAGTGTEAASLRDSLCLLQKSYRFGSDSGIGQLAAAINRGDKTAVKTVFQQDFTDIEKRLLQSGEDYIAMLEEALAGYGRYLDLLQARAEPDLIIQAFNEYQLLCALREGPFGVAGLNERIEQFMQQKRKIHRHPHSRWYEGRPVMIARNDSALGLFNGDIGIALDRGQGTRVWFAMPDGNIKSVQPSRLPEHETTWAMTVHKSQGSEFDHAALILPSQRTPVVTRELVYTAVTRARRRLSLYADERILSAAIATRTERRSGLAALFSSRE
T2 sequence (P07648 whole entry): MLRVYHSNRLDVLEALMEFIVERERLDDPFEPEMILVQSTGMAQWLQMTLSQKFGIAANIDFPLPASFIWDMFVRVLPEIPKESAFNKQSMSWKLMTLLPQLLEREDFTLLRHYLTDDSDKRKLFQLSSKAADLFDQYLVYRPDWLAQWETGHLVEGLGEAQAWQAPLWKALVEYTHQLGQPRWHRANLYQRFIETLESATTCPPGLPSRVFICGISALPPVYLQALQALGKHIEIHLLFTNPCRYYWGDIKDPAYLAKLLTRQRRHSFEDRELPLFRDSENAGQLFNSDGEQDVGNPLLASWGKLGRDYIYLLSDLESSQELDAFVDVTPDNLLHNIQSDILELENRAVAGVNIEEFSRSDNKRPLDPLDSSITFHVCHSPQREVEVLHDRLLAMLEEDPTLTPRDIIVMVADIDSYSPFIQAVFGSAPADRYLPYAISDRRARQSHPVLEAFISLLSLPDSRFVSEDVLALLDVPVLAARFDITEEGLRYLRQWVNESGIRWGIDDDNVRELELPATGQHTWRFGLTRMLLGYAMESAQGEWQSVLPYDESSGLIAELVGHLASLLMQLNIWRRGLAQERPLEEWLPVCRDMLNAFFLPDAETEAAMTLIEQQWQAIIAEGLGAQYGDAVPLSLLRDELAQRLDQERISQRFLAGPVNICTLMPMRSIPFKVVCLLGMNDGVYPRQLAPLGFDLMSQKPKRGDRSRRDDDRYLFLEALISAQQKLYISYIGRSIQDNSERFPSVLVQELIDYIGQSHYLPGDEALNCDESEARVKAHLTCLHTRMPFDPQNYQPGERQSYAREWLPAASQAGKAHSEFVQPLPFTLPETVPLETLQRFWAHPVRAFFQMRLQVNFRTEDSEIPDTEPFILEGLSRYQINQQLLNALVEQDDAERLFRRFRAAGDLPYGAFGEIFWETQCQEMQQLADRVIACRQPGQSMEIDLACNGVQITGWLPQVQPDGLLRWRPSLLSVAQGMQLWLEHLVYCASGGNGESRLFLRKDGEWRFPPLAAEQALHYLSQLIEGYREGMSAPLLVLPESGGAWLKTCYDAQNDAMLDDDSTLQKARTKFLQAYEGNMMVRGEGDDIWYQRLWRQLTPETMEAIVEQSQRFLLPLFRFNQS
T2 sequence (P08394 whole entry): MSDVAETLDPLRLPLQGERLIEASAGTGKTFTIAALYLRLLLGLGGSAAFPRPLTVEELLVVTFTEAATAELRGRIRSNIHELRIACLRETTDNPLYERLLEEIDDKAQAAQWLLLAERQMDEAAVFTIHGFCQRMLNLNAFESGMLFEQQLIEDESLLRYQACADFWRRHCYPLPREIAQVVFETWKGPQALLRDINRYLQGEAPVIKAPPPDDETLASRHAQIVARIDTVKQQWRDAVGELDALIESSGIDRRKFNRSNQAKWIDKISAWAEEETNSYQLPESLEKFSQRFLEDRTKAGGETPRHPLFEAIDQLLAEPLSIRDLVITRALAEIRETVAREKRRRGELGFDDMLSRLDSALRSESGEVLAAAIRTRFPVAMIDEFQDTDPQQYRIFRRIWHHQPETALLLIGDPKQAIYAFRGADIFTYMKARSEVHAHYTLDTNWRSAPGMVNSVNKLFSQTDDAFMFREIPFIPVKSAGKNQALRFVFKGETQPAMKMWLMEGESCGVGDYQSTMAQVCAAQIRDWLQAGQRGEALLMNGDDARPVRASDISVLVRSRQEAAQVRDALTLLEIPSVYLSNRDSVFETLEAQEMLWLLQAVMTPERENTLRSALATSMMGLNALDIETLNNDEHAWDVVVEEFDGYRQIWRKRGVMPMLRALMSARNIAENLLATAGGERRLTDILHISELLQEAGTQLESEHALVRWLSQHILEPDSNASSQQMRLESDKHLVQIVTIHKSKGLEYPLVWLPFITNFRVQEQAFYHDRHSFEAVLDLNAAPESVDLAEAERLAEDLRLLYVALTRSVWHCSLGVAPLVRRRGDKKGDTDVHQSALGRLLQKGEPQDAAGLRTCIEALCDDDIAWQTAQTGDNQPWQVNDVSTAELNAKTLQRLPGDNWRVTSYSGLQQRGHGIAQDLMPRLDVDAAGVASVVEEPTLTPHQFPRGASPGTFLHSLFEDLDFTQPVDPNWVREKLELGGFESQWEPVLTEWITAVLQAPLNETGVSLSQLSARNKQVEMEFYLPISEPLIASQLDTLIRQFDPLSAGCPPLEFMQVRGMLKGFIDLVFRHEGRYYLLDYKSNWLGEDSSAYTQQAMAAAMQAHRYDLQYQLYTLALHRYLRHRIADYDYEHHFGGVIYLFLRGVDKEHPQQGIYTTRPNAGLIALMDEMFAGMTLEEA
The experiment can be described thus: E. coli RecBCD inhibitors, dose response, counter-screen for AddAB inhibitor project, absorbance, V66 E. coli, mutant T4 phage (AID 492957). It counts as functional, cell-based, Escherichia coli str. K-12 substr. MG1655.

Experiment [7] has as its target NACHT, LRR and PYD domains-containing protein 3 (Homo sapiens, UniProt Q96P20). Description: NALP3 inhibitors in yeast, dose response, luminescent (AID 488799). Format: functional.
Experiment [8] is described as follows: Counterscreen for AddAB inhibitors: absorbance-based bacterial cell-based high throughput dose response assay for inhibitors of bacterial viability. [Related pubchem assays (depositor defined):AID435030, AID449728, AID449731, AID488942, AID488955, AID488956]. Format: functional.
For experiment [9], the system named is INS1. The experiment can be described thus: beta cell apoptosis inhibitors, cytokine rescue, dose response, luminescence, retest (AID 449756).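 Further: cell death triggered by IL-1 beta plus TNF-alpha plus IFN-gamma mixture; protective hits raise ATP signal compared with cytokine alone wells.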 It counts as functional, cell-based. Conditions: Rattus norvegicus.
In experiment [10] the target is T3, Neuropeptides B/W receptor type 1 (Homo sapiens, UniProt P48145).
T3 sequence (P48145 whole entry): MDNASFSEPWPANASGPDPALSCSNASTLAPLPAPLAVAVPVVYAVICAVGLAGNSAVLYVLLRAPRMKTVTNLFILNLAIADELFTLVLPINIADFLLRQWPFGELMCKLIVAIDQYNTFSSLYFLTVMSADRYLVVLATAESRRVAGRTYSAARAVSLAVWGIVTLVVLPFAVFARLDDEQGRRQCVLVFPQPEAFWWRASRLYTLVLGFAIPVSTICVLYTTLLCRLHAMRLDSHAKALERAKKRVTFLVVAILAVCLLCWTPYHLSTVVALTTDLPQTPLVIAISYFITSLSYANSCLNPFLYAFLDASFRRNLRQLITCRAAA
Description: GPR7 antagonist potency, late-stage follow-up, cell-based, fluorescence, dose response (AID 463251). It counts as functional.

Sequence of NACHT, LRR and PYD domains-containing protein 3 (Q96P20 whole entry, the tested form may be a part): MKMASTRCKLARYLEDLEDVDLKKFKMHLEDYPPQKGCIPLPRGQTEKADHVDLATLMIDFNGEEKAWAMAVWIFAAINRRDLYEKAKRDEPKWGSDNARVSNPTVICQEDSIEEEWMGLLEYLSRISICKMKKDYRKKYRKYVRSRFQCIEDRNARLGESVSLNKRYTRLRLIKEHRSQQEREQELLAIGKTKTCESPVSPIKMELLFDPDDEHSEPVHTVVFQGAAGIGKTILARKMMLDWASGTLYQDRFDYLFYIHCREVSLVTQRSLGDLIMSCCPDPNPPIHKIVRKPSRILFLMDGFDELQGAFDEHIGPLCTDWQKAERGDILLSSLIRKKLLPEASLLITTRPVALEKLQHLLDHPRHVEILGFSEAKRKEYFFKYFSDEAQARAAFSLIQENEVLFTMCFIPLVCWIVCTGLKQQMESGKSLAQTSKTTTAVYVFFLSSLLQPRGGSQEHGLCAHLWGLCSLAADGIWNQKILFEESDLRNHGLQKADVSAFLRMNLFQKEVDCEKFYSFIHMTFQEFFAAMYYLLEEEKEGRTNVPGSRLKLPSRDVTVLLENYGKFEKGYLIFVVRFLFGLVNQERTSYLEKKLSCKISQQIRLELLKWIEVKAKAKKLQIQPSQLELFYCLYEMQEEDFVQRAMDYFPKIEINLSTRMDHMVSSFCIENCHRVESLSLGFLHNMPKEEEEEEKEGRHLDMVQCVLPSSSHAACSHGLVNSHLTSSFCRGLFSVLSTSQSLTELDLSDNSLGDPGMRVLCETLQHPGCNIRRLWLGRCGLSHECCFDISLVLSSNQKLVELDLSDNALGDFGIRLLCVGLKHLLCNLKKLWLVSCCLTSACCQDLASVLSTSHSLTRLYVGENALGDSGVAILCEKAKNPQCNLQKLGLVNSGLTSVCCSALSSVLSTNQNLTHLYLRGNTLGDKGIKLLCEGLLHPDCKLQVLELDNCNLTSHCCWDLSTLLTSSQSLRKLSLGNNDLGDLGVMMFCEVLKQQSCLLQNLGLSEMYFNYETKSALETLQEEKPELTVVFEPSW

On to `N#Cc1ccc(NC(=O)Nc2ccc(Cl)cc2)cc1`, for which the EC50 is 31.4 µM (active) in experiment [1]; > 150 µM (not active) in experiment [2]; 2.67 µM (active) in experiment [3]; 7.48 µM (active) in experiment [4]; > 150 µM (not active) in experiment [5]. Moreover, the IC50 was > 119 µM (inactive) in experiment [6], 3.53 µM (active) in experiment [7] and > 119 µM (inactive) in experiment [8]. Moreover, in experiment [9], the AC50 was 4 µM (active).

On to `COc1ccc(Oc2c(C)cnn(-c3ccccc3)c2=O)cc1`, for which the IC50 in [10] is > 20 µM (inactive).

The EC50 is the concentration needed to bring the measured effect to its halfway point. For orientation: IC50 means the point on the concentration scale where inhibition reaches its midpoint. In general, AC50 refers to the concentration at which the activity in the assay is half-maximal.
